# Legend:
# [1] = system: septin-7; experiment: Immunoblot of septin-7 expression; format: cell-based; conditions: PANC-1, 1.0 and 10.0 μM, 48 hours
# [2] = target: septin-6 (Homo sapiens, UniProt Q14141); experiment: Confocal analysis of septin-6; format: cell-based; conditions: SKOV-3, 1 μM, 48 hours
# [3] = system: PANC-1 cells; experiment: Live/Dead dye flow cytometry, PANC-1; format: cell-based, human; conditions: PANC-1, 3 μM
# Protocol: Cell Lines, Cell Culture, and Reagents. PANC-1, BXPC-3 and CAPAN-1, SKOV-3, MCF7, MDA-MD-231 cells were obtained from ATCC and maintained in DMEM, RPMI-1640 and IMDM supplemented with 10% fetal calf serum penicillin (100 units/mL), and streptomycin (100 μg/mL) at 37° C. with 5% CO2 in a humidified incubator. JIMT-1 cells were purchased from AddexBio Inc, USA (catalog number: C0006005) and maintained in 10% FBS and antibiotic supplemented DMEM. […] The reaction was monitored using thin-layer chromatography plates with DCM-MeOH or pure ethyl acetate as eluent. Spots were monitored in a UV chamber. […] ICM scores for each compound and their poses were calculated and compared with FCF. […] Cell viability of PANC-1, BXPC-3 and CAPAN-1 pancreatic cancer cells treated with UR214-9 was measured using the Cell Titre96R Aqueous One Solution Cell Proliferation Assay (Promega Corp., catalog number: G3580) following the procedure published earlier. […] The cells were analyzed by a 305 flow cytometer and relative live and dead cell population was calculated by inputting equal number of cells in both vehicle and control group.
# Chain of septin-6 (Q14141 whole entry): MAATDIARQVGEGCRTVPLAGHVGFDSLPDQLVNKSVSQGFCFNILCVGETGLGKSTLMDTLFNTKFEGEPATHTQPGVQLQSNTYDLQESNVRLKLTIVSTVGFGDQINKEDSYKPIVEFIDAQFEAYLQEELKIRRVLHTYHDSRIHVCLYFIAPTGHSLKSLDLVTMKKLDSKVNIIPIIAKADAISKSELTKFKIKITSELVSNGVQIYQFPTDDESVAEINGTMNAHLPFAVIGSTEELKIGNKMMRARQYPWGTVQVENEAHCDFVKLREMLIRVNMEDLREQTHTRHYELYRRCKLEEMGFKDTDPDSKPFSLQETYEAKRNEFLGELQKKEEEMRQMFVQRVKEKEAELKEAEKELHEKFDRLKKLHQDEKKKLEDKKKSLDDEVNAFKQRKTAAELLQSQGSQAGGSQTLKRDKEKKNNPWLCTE
smiles,measurement,setting,value
O=C(Nc1cc(Cl)nc(Cl)c1)Nc1cccc(SC(F)(F)F)c1F [UR214-9],septin-7 expression (immunoblot),[1],unaffected
same,septin-6 (confocal),[2],decreased upon treatment
same,dead-cell population,[3],over 38%

# Source: patent US12433876B2, “Septin inhibitors for treatment of cancers” (UNIVERSITY OF ROCHESTER, priority 2019, dated 2025)
